# Data published in patent US20080226718A1, “Indole and Azaindole Derivatives For the Treatment of Inflammatory and Autoimmune Diseases” (Brane Discovery S.r.l, priority 2005, published 2008).
# Experiments:
# Type in all cases: cell-based, SJL mice
# [1] = system: encephalitogenic lymphocytes; assay: Spontaneous adhesion of encephalitogenic T cells on purified VCAM-1; details: Mus musculus, Lymphocyte, 1 h; for inhibition at 5 µM: [cpd] 5 μM, read-out: Inhibition of Spontaneous Adhesion in encephalitogenic lymphocytes (% of control/non-treated cells) VCAM-1; for inhibition at 10 µM: [cpd] 10 μM; for inhibition at 10 µM / inhibition at 25 µM / inhibition at 50 µM: read-out: Inhibition of Spontaneous Adhesion in encephalitogenic lymphocytes (% of control/non-treated cells) VCAM-1 (converted); for inhibition at 25 µM: [cpd] 25 μM; for inhibition at 50 µM: [cpd] 50 μM
# Procedure: (§1) Spontaneous adhesion of encephalitogenic lymphocytes was measured in adhesion assays on purified ICAM-1 and VCAM-1 as previously described (Constantin G. et al., J. Immunol. 162, 1144-1149, 1999). Autoreactive T cells were obtained from SJL mice immunized with PLP139-151 as described (Piccio L. et al., J. Immunol. 168, 1940-1949, 2002). Lymphocytes were treated with test compound at concentrations between 5-100 μM for 1 h, while control/untreated cells were treated with vehicle (DMSO). Results are expressed as percentage of inhibition over control (=100%) ±S.D and are the mean of three-four experiments.
# (§2) ICAM-1 and VCAM-1 are adhesion molecules from the family of immunoglobulins and control the migration of lymphocytes through the endothelium during inflammatory responses. Encephalitogenic T cells are activated lymphocytes displaying spontaneous adhesion on ICAM-1 and VCAM-1 and have increased migration capacities in inflammation sites. Spontaneous adhesion of encephalitogenic lymphocytes was measured in adhesion assays on purified ICAM-1 and VCAM-1 as described in the method.
# [2] = system: encephalitogenic lymphocytes; assay: Chemokine-induced adhesion of murine encephalitogenic T cells to ICAM-1; details: for Block of chemokine-induced autoreactive lymphocyte adhesion, in words: 5-50 μM for 1 h, 1 μM CCL19; for Chemokine-induced Adhesion in encephalitogenic lymphocytes, Mean counts ± S.D., in presence of MIP3-β stimulation: 1 μM CCL19 (MIP-3beta); for Chemokine-induced Adhesion in encephalitogenic lymphocytes, Mean counts ± S.D., in presence of MIP3-β stimulation / Adhesion in encephalitogenic lymphocytes, Mean counts ± S.D., in absence of MIP3-β stimulation: ICAM-1
# Procedure: Adhesion was performed on purified integrin ligands and was evaluated as reported in Constantin G. et al., Immunity, 16, 759-769, 2000. Briefly, primary naïve lymphocytes, polymorphonuclear neutrophils (PMNs) or monocytes were isolated form healthy donors. In other experiments, murine autoreactive T cells were obtained from SJL mice immunized with PLP139-151 as described (Piccio L. et al., J. Immunol, 168, 1940-1949, 2002). Cells were resuspended at 4×10^6/ml in PBS, CaCl2, MgCl2 1 mM, 10% FCS, pH 7.2. Adhesion assays were performed on eighteen well glass slides coated overnight at 4° C. with ligands for CR3 (fibrinogen) or LFA-1 (ICAM-1). 20 μl of cell suspension were added to the wells and stimulated at 37° C. with 5 μl of agonists prior to washing, fixation and computer-assisted enumeration of bound cells.
# Integrin activation was measured as induction of rapid adhesion triggered by the classical chemoattractant N-formyl-L-methionyl-L-leucyl-phenylalanine (fMLP) (100 nM) or by the CC chemokine MIP3β (CCL19, 1 μM). PMNs and monocytes were triggered to adhere to fibrinogen (CR3 ligand); naive human lymphocytes or murine encephalitogenic T cells were triggered to adhere to ICAM-1 (LFA-1 ligand). Triggered adhesion was evaluated after 2 min of stimulation under static conditions. The cells were pretreated at 37° C. for 30-60 min with the indicated concentrations of the test compound. Results are expressed as percentage of inhibition over control (=100%) and are the mean of three experiments in the case of human leukocytes. Results are expressed as mean counts and are the mean counts ±S.D of three experiments and are the mean of three experiments in the case of murine encephalitogenic lymphocytes.
# Chemokines trigger rapid arrest of lymphocytes in blood vessels through pertussis toxin-sensitive G protein coupled receptors. Rapid adhesion to purified ICAM-1 was measured in in vitro adhesion assays using control/untreated cells and lymphocytes treated with concentration between 5-50 μM for 1 h. Autoreactive lymphocytes were then stimulated with 1 μM CCL19 (MIP-3beta) for 3 min. […] These compounds were already efficient in blocking adhesion using a concentration of 5 μM for the cell treatment.
# [3] = system: encephalitogenic lymphocytes; assay: Spontaneous adhesion of encephalitogenic T cells on purified ICAM-1; details: Mus musculus, Lymphocyte, 1 h; for inhibition at 5 µM: [cpd] 5 μM, read-out: Inhibition of Spontaneous Adhesion in encephalitogenic lymphocytes (% of control/non-treated cells) ICAM-1; for inhibition at 10 µM: [cpd] 10 μM; for inhibition at 10 µM / inhibition at 25 µM / inhibition at 50 µM / inhibition at 100 µM: read-out: Inhibition of Spontaneous Adhesion in encephalitogenic lymphocytes (% of control/non-treated cells) ICAM-1 (converted); for inhibition at 25 µM: [cpd] 25 μM; for inhibition at 50 µM: [cpd] 50 μM; for inhibition at 100 µM: [cpd] 100 μM
# Procedure: as §1, §2
structure (smiles),measurement,setting,value
COc1ccc(-c2c(C#N)n(CCCO)c3cc(OC)c(OC)cc23)cc1 [Example 44],inhibition at 5 µM,[1],29%
same,inhibition at 10 µM,[1],39%
same,inhibition at 25 µM,[1],43%
same,inhibition at 50 µM,[1],84%
same,"Block of chemokine-induced autoreactive lymphocyte adhesion, in words",[2],almost complete block
same,"Chemokine-induced Adhesion in encephalitogenic lymphocytes, Mean counts ± S.D., in presence of MIP3-β stimulation",[2]; [cpd] 5 μM,2.1 ± 0.5
same,"Adhesion in encephalitogenic lymphocytes, Mean counts ± S.D., in absence of MIP3-β stimulation",[2]; [cpd] 5 μM,1.0 ± 0.9
same,"Chemokine-induced Adhesion in encephalitogenic lymphocytes, Mean counts ± S.D., in presence of MIP3-β stimulation",[2]; [cpd] 10 μM,3.7 ± 1.1
same,"Adhesion in encephalitogenic lymphocytes, Mean counts ± S.D., in absence of MIP3-β stimulation",[2]; [cpd] 10 μM,0.4 ± 1.7
same,"Chemokine-induced Adhesion in encephalitogenic lymphocytes, Mean counts ± S.D., in presence of MIP3-β stimulation",[2]; [cpd] 25 μM,1.8 ± 0.5
same,"Adhesion in encephalitogenic lymphocytes, Mean counts ± S.D., in absence of MIP3-β stimulation",[2]; [cpd] 25 μM,0.4 ± 0.1
same,"Chemokine-induced Adhesion in encephalitogenic lymphocytes, Mean counts ± S.D., in presence of MIP3-β stimulation",[2]; [cpd] 50 μM,0.1 ± 0.5
same,"Adhesion in encephalitogenic lymphocytes, Mean counts ± S.D., in absence of MIP3-β stimulation",[2]; [cpd] 50 μM,0.4 ± 0.5
same,inhibition at 5 µM,[3],75%
same,inhibition at 10 µM,[3],84%
same,inhibition at 25 µM,[3],88%
same,inhibition at 50 µM,[3],91.5%
same,inhibition at 100 µM,[3],99%
COc1ccc(-c2c(C#N)[nH]c3cc(OC)c(OC)cc23)cc1 [Example 17],inhibition at 5 µM,[1],34%
same,inhibition at 10 µM,[1],53%
same,inhibition at 25 µM,[1],71.5%
same,inhibition at 50 µM,[1],89%
same,"Block of chemokine-induced autoreactive lymphocyte adhesion, in words",[2],almost complete block
same,"Chemokine-induced Adhesion in encephalitogenic lymphocytes, Mean counts ± S.D., in presence of MIP3-β stimulation",[2]; [cpd] 5 μM,13.6 ± 3.5
same,"Adhesion in encephalitogenic lymphocytes, Mean counts ± S.D., in absence of MIP3-β stimulation",[2]; [cpd] 5 μM,2.0 ± 1.0
same,"Chemokine-induced Adhesion in encephalitogenic lymphocytes, Mean counts ± S.D., in presence of MIP3-β stimulation",[2]; [cpd] 10 μM,10.0 ± 3.0
same,"Adhesion in encephalitogenic lymphocytes, Mean counts ± S.D., in absence of MIP3-β stimulation",[2]; [cpd] 10 μM,0.9 ± 0.2
same,"Chemokine-induced Adhesion in encephalitogenic lymphocytes, Mean counts ± S.D., in presence of MIP3-β stimulation",[2]; [cpd] 25 μM,1.8 ± 1.0
same,"Adhesion in encephalitogenic lymphocytes, Mean counts ± S.D., in absence of MIP3-β stimulation",[2]; [cpd] 25 μM,0.6 ± 0.5
same,"Chemokine-induced Adhesion in encephalitogenic lymphocytes, Mean counts ± S.D., in presence of MIP3-β stimulation",[2]; [cpd] 50 μM,2.1 ± 0.9
same,"Adhesion in encephalitogenic lymphocytes, Mean counts ± S.D., in absence of MIP3-β stimulation",[2]; [cpd] 50 μM,0.4 ± 0.1
same,inhibition at 5 µM,[3],72.8%
same,inhibition at 10 µM,[3],72.5%
same,inhibition at 25 µM,[3],76%
same,inhibition at 50 µM,[3],92%
same,inhibition at 100 µM,[3],99%
COC(=O)c1[nH]c2cc(OC)c(OC)cc2c1-c1ccccc1 [Example 3],inhibition at 5 µM,[1],6%
same,inhibition at 10 µM,[1],9%
same,inhibition at 25 µM,[1],32.5%
same,inhibition at 50 µM,[1],71.4%
same,"Block of chemokine-induced autoreactive lymphocyte adhesion, in words",[2],almost complete block
same,"Chemokine-induced Adhesion in encephalitogenic lymphocytes, Mean counts ± S.D., in presence of MIP3-β stimulation",[2]; [cpd] 5 μM,10.5 ± 3.0
same,"Adhesion in encephalitogenic lymphocytes, Mean counts ± S.D., in absence of MIP3-β stimulation",[2]; [cpd] 5 μM,1.5 ± 2.0
same,"Chemokine-induced Adhesion in encephalitogenic lymphocytes, Mean counts ± S.D., in presence of MIP3-β stimulation",[2]; [cpd] 10 μM,8.7 ± 3.0
same,"Adhesion in encephalitogenic lymphocytes, Mean counts ± S.D., in absence of MIP3-β stimulation",[2]; [cpd] 10 μM,1.8 ± 1.0
same,"Chemokine-induced Adhesion in encephalitogenic lymphocytes, Mean counts ± S.D., in presence of MIP3-β stimulation",[2]; [cpd] 25 μM,3.5 ± 1.5
same,"Adhesion in encephalitogenic lymphocytes, Mean counts ± S.D., in absence of MIP3-β stimulation",[2]; [cpd] 25 μM,1.2 ± 1.0
same,"Chemokine-induced Adhesion in encephalitogenic lymphocytes, Mean counts ± S.D., in presence of MIP3-β stimulation",[2]; [cpd] 50 μM,5.0 ± 2.0
same,"Adhesion in encephalitogenic lymphocytes, Mean counts ± S.D., in absence of MIP3-β stimulation",[2]; [cpd] 50 μM,0.5 ± 2.0
same,inhibition at 5 µM,[3],78%
same,inhibition at 10 µM,[3],79.5%
same,inhibition at 25 µM,[3],90%
same,inhibition at 50 µM,[3],92%
same,inhibition at 100 µM,[3],99%
COc1ccc(-c2c3n(c4cc(OC)c(OC)cc24)CCNC3=O)cc1 [Example 27],inhibition at 5 µM,[1],11%
same,inhibition at 10 µM,[1],31%
same,inhibition at 25 µM,[1],35.5%
same,inhibition at 50 µM,[1],82%
same,"Block of chemokine-induced autoreactive lymphocyte adhesion, in words",[2],almost complete block
same,"Chemokine-induced Adhesion in encephalitogenic lymphocytes, Mean counts ± S.D., in presence of MIP3-β stimulation",[2]; [cpd] 5 μM,17.7 ± 2.5
same,"Adhesion in encephalitogenic lymphocytes, Mean counts ± S.D., in absence of MIP3-β stimulation",[2]; [cpd] 5 μM,5.0 ± 2.2
same,"Chemokine-induced Adhesion in encephalitogenic lymphocytes, Mean counts ± S.D., in presence of MIP3-β stimulation",[2]; [cpd] 10 μM,18.1 ± 4.3
same,"Adhesion in encephalitogenic lymphocytes, Mean counts ± S.D., in absence of MIP3-β stimulation",[2]; [cpd] 10 μM,1.7 ± 1.0
same,"Chemokine-induced Adhesion in encephalitogenic lymphocytes, Mean counts ± S.D., in presence of MIP3-β stimulation",[2]; [cpd] 25 μM,9.3 ± 0.5
same,"Adhesion in encephalitogenic lymphocytes, Mean counts ± S.D., in absence of MIP3-β stimulation",[2]; [cpd] 25 μM,1.5 ± 0.1
same,"Chemokine-induced Adhesion in encephalitogenic lymphocytes, Mean counts ± S.D., in presence of MIP3-β stimulation",[2]; [cpd] 50 μM,5.1 ± 1.1
same,"Adhesion in encephalitogenic lymphocytes, Mean counts ± S.D., in absence of MIP3-β stimulation",[2]; [cpd] 50 μM,1.2 ± 1.1
same,inhibition at 5 µM,[3],69%
same,inhibition at 10 µM,[3],76%
same,inhibition at 25 µM,[3],82%
same,inhibition at 50 µM,[3],90%
same,inhibition at 100 µM,[3],99%
